# In patent publication US20260144805A1, “CANNABIDIOL COMPOSITIONS FOR USE IN THE TREATMENT OF NEURODEGENERATIVE AND NEUROLOGICAL DISORDERS” (JAZZ PHARMACEUTICALS RESEARCH UK LIMITED, priority 2022, published 2026):
# Assays:
# [1] = tested on: rat VPA model; assay: Social interaction: Social Approach Avoidance (SAA) P60 in rat VPA model (Example 5; DS = DS-E); type: in vivo; settings: adult; risperidone 0.125 mg/kg
# Experimental: Time-mated female Wistar rats were administered a single dose of valproic acid (VPA, 600 mg/kg, i.p.) on gestational day 12.5. Male offspring were delivered and confirmation of the VPA induced developmental deficit was rapidly achieved by examination of characteristic “tail kinks” in the juvenile animals. The timeline of experiments is outlined in FIG. 8 and animals were randomly allocated to treatment groups (Table O).
# Control animals were administered sterile saline (0.9% w/v, i.p.) in utero and the vehicle control (ethanol: Kolliphor HS15: saline (1:1:18, v/v/v), i.p.
# This test was originally used for assessing anxiety-like behavior and subsequently used to assess the social behavior in potential animal models of schizophrenia (Sams-Dodd, 1995 Behav Pharmacol. 6:55) but has been extended to the study of autism models (Schneider and Przewlocki, 2005 Neuropsychopharmacol. 30:80). Therefore, utilising a model based on published designs (Brodkin et al., 2004 Brain Res. 1002:151; Moy et al., 2004 Genes Brain Behav. 3:287) adult animals were assessed for social preference following prenatal VPA exposure whereby a novel animal was introduced to the test arena (n=8). The main outcome measure was the time engaged in active social behavior. Additionally, the time spent in each of the social, non-social and neutral chamber was also determined. […]
# [2] = tested on: rTg4510 mice; assay: Open Field (OF) test, locomotor activity in rTg4510 mouse model of Alzheimer's Disease (Example 2; DS = DS-C); type: in vivo; settings: Week 31; for Locomotor activity totals, % vs Wild-type / Locomotor activity totals, % vs rTg4510 / Locomotor activity totals, Mean: Risperidone 0.125 mg/kg i.p.
# Experimental: The aim of this study was to evaluate the efficacy of the present drug substance to modulate the agitation-like behaviours in the rTg4510 regulatable mouse model of Alzheimer's Disease (AD). Animals were tested in a behavioural assay, the Open Field (OF) test to measure locomotor activity (LMA). Activity was first assessed at a 21-week-old baseline to determine whether a hyperactive phenotype (to be used as a proxy for agitation) had developed and was further assessed at 2 subsequent ages in acute and chronic efficacy phases.
# Ninety male rTg4510 (CC) mice and 15 wild-type (WW) (Tg(Camk2a-tTA)1Mmay Fgf14^Tg(tetO-MAPT*P301L)4510Kha/J, Jax strain #024854, licensed from the Mayo Clinic, USA) were split into 2 cohorts, 4 weeks apart in age; cohort 1 contained 53 mice (8 WW and 45 CC) and cohort 2 contained 52 mice (7 WW and 45 CC). Relative humidity was 55±15% throughout. Mice were housed in individually ventilated cages on a 12 h/12 h light/dark cycle (lights on at 07.00 h; illumination by red light during the dark phase), at an ambient temperature of 24±4° C. with free access to standard rodent maintenance diet and filtered water. Animals were allowed to acclimatise to the above conditions for 7-10 days prior to the study start. All housing groupings were preserved until the mice were approximately 5 months old, at which point they were singly housed.
# Doxycycline administration: a subset of animals in cohort 2 (n=15) was administered 2× daily oral bolus doses of doxycycline hyclate (10 mg/kg p.o. in 5% glucose, Sigma Aldrich) at 13 weeks of age, followed by continuous exposure to normal lab chow containing 200 ppm doxycycline (Envigo Teklad 2018 TD.00502 no colourants, irradiated and vacuum-packed). All other animals received Envigo Teklad 2018 diet. All diet was provided ad libitum.
# Following this regime, animals were evaluated in Open Field (OF) test, before being deeply anaesthetised at the end of the behavioural testing prior to biofluid sampling and tissue harvesting.
# Specifically, the material was solubilised by the addition of 50 μL of 10% glacial acetic acid and making up to volume with 0.9% saline (Aquapharm, Animal Care, York, UK, Lot 21030311).
# Drug Substance (DS): (i.e., DS-C, See Table B in Example 1) Dosing volume was 10 mL/kg and DS was formulated at the 150 mg/kg dose in a vehicle of ethanol: Kolliphor HS15: 0.9% saline (1:12:87, w/w/v) which were stored at room temperature and added at approximately 60° C. to form solutions which were subsequently stable at room temperature. All dosing formulations were protected from light whenever possible. Dosing solutions were made fresh on the day of dosing, with lower dose formulations being prepared by dilution from the 150 mg/kg dosing solution at room temperature.
# Locomotor activity was assessed by OF test in the light phase of the light-dark cycle at weeks 21, 26 and 31. An automated beam break apparatus (40 cages) was used for the assessment of locomotor activity in rats and mice. Each cage had 4 beams; 1 ‘y’ and 3 ‘x’ which triggered a signal through capacitors when the beam was broken. Signals were collected by data loggers and processed accordingly. All animals were placed in the apparatus and spontaneous activity was assessed for a four-hour period between 0900 and 1300. Animals were then removed from the apparatus and returned to their home cages. LMA assessment was split over 2 consecutive days at each time point.
# For locomotor data, a log (x+1) transformation was used. For weeks 21 & 26, means and SEMs were calculated from the transformed data. Analysis was by Friedman's two-way nonparametric ANOVA with treatment and test day as factors to compare each group to the WW animals, and (where appropriate) Doxycycline with the untreated rTg4510 group. For week 30, data excluding the WW and Doxycycline groups for each time period were analysed by robust regression model using M estimation, Huber weighting, using the default parameter c=1.345. […]
smiles,measurement,setting,value
Cc1nc2n(c(=O)c1CCN1CCC(c3noc4cc(F)ccc34)CC1)CCCC2 [Risperidone],time engaged in active social behaviour (VPA deficit),[1],not prevented
same,"Locomotor activity totals, % vs Wild-type",[2]; 0-30 minutes,95.7%
same,"Locomotor activity totals, % vs rTg4510",[2]; 0-30 minutes,40.1%
same,"Locomotor activity totals, Mean",[2]; 0-30 minutes,525.99
same,"Locomotor activity totals, % vs Wild-type",[2]; 0-60 minutes,135.0%
same,"Locomotor activity totals, % vs rTg4510",[2]; 0-60 minutes,49.4%
same,"Locomotor activity totals, Mean",[2]; 0-60 minutes,1313.59
same,hyperlocomotion vs rTg4510(vehicle),"[2]; 0-60 minutes, risperidone 0.125 mg/kg/d",significantly reversed
same,"Locomotor activity totals, % vs Wild-type",[2]; 30-60 minutes,183.6%
same,"Locomotor activity totals, % vs rTg4510",[2]; 30-60 minutes,46.9%
same,"Locomotor activity totals, Mean",[2]; 30-60 minutes,641.92
same,"Locomotor activity totals, % vs Wild-type",[2]; 60-90 minutes,104.9%
same,"Locomotor activity totals, % vs rTg4510",[2]; 60-90 minutes,24.1%
same,"Locomotor activity totals, Mean",[2]; 60-90 minutes,140.56
same,"Locomotor activity totals, % vs Wild-type",[2]; 60-120 minutes,134.8%
same,"Locomotor activity totals, % vs rTg4510",[2]; 60-120 minutes,39.8%
same,"Locomotor activity totals, Mean",[2]; 60-120 minutes,384.49
same,"Locomotor activity totals, % vs Wild-type",[2]; 90-120 minutes,241.3%
same,"Locomotor activity totals, % vs rTg4510",[2]; 90-120 minutes,79.0%
same,"Locomotor activity totals, Mean",[2]; 90-120 minutes,132.22
same,"Locomotor activity totals, % vs Wild-type",[2]; 120-150 minutes,222.8%
same,"Locomotor activity totals, % vs rTg4510",[2]; 120-150 minutes,130.5%
same,"Locomotor activity totals, Mean",[2]; 120-150 minutes,210.31
same,"Locomotor activity totals, % vs Wild-type",[2]; 150-180 minutes,399.5%
same,"Locomotor activity totals, % vs rTg4510",[2]; 150-180 minutes,103.1%
same,"Locomotor activity totals, Mean",[2]; 150-180 minutes,82.39
same,"Locomotor activity totals, % vs Wild-type",[2]; 180-210 minutes,136.3%
same,"Locomotor activity totals, % vs rTg4510",[2]; 180-210 minutes,103.4%
same,"Locomotor activity totals, Mean",[2]; 180-210 minutes,27.84
same,"Locomotor activity totals, % vs Wild-type",[2]; 210-240 minutes,37.5%
same,"Locomotor activity totals, % vs rTg4510",[2]; 210-240 minutes,56.3%
same,"Locomotor activity totals, Mean",[2]; 210-240 minutes,6.99
